Experiment [1] relates to horny layer oxidized protein. Put plainly: Agent-induced inhibition of sodium hypochlorite-induced increase in horny layer oxidized protein (tape-stripped horny layer, fluorescein-5-thiosemicarbazide labeling). Type of experiment: biochemical, human. The following applies: abdomen tape horny layer, 0.2 mM sodium hypochlorite plus agent, 37° C. for 18 hours; concentration inhibiting increase to median between hypochlorite alone and water alone; read-out: 50% inhibition concentration. How it is done: Adhesive tape is attached to the skin, such as an unexposed part of the abdomen, of a healthy individual, and immediately stripped off for non-invasive sampling of the outer layer of the horny layer. The tape which was attached to the horny layer is incubated in an aqueous solution containing a mixture of the oxidizing agent and a fixed concentration of the candidate agent. […] The inhibiting effect of the agent on oxidized protein increase may also be evaluated based on the level of oxidized protein in the horny layer specimen obtained after simultaneously applying the oxidizing agent onto human skin.
(§1) Transparent adhesive tape was attached to the abdomen of a healthy individual and immediately stripped off, to non-invasively obtain the outer layer of the horny layer. The tape attached to the horny layer was incubated in an aqueous solution comprising a mixture of 0.2 mM sodium hypochlorite and a fixed concentration of the agent, at 37° C. for 18 hours. After incubation was complete, the mixture was thoroughly washed with phosphate-buffered saline (PBS) and then reacted with a 100 mM MES-Na buffer solution (pH 5.5) containing 20 μM fluorescein-5-thiosemicarbazide (Molecular Probes Co.) at room temperature for 1 hour. After completion of the reaction, thorough washing was carried out with phosphate-buffered saline (PBS) and a fluorescent microscope was used for observation.

Experiment [2] has as its system horny layer oxidized protein. The experiment is described as follows: Increase in horny layer oxidized protein due to aldehyde (tape-stripped horny layer). Type of experiment: biochemical, human. As to conditions: 1 mM aqueous acrolein, room temperature, 18 hours, abdomen tape horny layer. As to the method:
as §1, with “in a 1 mM” for “in an”, “aqueous acrolein” for “aqueous”, “solution” for “solution comprising a mixture of 0.2 mM sodium hypochlorite and a fixed concentration of the agent,”, “at room temperature” for “at 37° C.”

The test system of experiment [3] is horny layer oxidized protein. The experiment is described as follows: Increase in horny layer oxidized protein due to unsaturated fatty acid coated on forearm. The following applies: 40 μL/cm^2 of 30% linoleic acid-ethanol solution, 3 consecutive days. The format is in vivo, human. As to the method: (§2) After coating the forearm of a healthy individual with 40 μL/cm^2 of a 30% linoleic acid-ethanol solution for 3 consecutive days, transparent adhesive tape was attached to the irradiated site and immediately stripped off, to non-invasively obtain the outer layer of the horny layer. The tape attached to the horny layer was reacted with a 100 mM MES-Na buffer solution (pH 5.5) containing 20 μM fluorescein-5-thiosemicarbazide (Molecular Probes Co.) at room temperature for 1 hour. After completion of the reaction, thorough washing was carried out with phosphate-buffered saline (PBS), and then a fluorescent microscope was used for observation.

Experiment [4] deals with horny layer oxidized protein. The experiment is described as follows: Increase in horny layer oxidized protein due to sodium hypochlorite coated on forearm. The format is in vivo, human. The following applies: 2 μL/cm^2 of 20 mM aqueous solution, 5 consecutive days. How it is done: as §2, with “2” for “40”, “20 mM aqueous sodium hypochlorite” for “30% linoleic acid-ethanol”, “5” for “3”, “attached” for “attached to the irradiated site”

In experiment [5] the test system is horny layer oxidized protein. Put plainly: Increase in horny layer oxidized protein due to sodium hypochlorite and unsaturated fatty acids (tape-stripped horny layer). Type of experiment: biochemical, human. As to conditions: 0.2 mM aqueous sodium hypochlorite, 37° C., 18 hours, abdomen tape horny layer. As to the method: Transparent adhesive tape was attached to the abdomen of a healthy individual and immediately stripped off, to non-invasively obtain the outer layer of the horny layer. The tape attached to the horny layer was coated with 200 μg/cm^2 of unsaturated fatty acids (linoleic acid, oleic acid and palmitoleic acid), and then incubated in a 0.2 mM aqueous sodium hypochlorite solution at 37° C. for 18 hours. After incubation was complete, the mixture was thoroughly washed with phosphate-buffered saline (PBS) and then reacted with a 100 mM MES-Na buffer solution (pH 5.5) containing 20 μM fluorescein-5-thiosemicarbazide (Molecular Probes Co.) at room temperature for 1 hour. After completion of the reaction, thorough washing was carried out with phosphate-buffered saline (PBS) and a fluorescent microscope was used for observation.

As to `O=C1O[C@H]([C@@H](O)CO)C(O)=C1O[C@H]1O[C@H](CO)[C@@H](O)[C@H](O)[C@H]1O` [2-O-α-D-Glucopyranosyl-L-ascorbic acid], the IC50 in experiment [1] stood at 190 µM.
With `C=CC=O` [acrolein], the “change in oxidized protein after incubation with acrolein” value in experiment [2] is listed as “increase in oxidized protein”.
Regarding `NCCS(=O)(O)=S` [2-Aminoethanethiosulfonic acid], in experiment [1], the IC50 was 63 µM.
Still for that read-out and setting: with `Cc1c(C)c2c(c(C)c1O)CC[C@@](C)(CCC[C@H](C)CCC[C@H](C)CCCC(C)C)O2` [α-Tocopherol] the figure was 220 µM; with `O=C1O[C@H]([C@@H](O)CO)C(O)=C1O` [Ascorbic acid], 210 µM.
`CCCCC/C=C\C/C=C\CCCCCCCC(=O)O` [linoleic acid]: the “change in oxidized protein after coating skin with linoleic acid” value in experiment [3] is on record as “increase in oxidized protein”.
As to `OCl` [sodium hypochlorite], the “change in oxidized protein after coating skin with sodium hypochlorite” value in experiment [4] is recorded as “increase in oxidized protein”. For the same molecule, the “change in oxidized protein after incubation with sodium hypochlorite, compared to incubation with water” value in experiment [5] is reported as “increase in oxidized protein”.
As for `O=S(O)S(=O)(=O)O` [Sodium pyrosulfite], in experiment [1], the IC50 is < 125 µM.
Regarding `O=C1O[C@H]([C@@H](O)CO)C(O)=C1OP(=O)(O)O` [Magnesium ascorbate phosphate ester], the IC50 in experiment [1] is < 125 µM.
On the same count and under the same terms, with `N[C@@H](CCC(=O)N[C@@H](CS)C(=O)NCC(=O)O)C(=O)O` [Glutathione] the figure was 8 µM; with `NCCS(=O)O` [2-Aminoethanesulfinic acid], 86 µM; with `Cc1c(C)c2c(c(C)c1OP(=O)(O)OC1=C(O)C(C(O)CO)OC1=O)CCC(C)(CCCC(C)CCCC(C)CCCC(C)C)O2` [Potassium α-tocopherol-2-L-ascorbate phosphate diester], < 125 µM.
Turning to `CCOC1=C(O)C(=O)O[C@@H]1[C@@H](O)CO` [3-O-Ethylascorbic acid], the IC50 in experiment [1] amounted to 140 µM.
